# Measured values: patent US20070025914A1, “Bronchioalveolar stem cells and uses thereof” (priority 2005, published 2007)
# Where “and” joins values, the source holds several entries; their conditions need not be identical. Equal values may be shown once.
# Tests used:
# [1] = test system: AT2 cells; test: AdGFP infection followed by IF for SP-C or CCA after naphthalene; format: in vivo, mouse; conditions: 24 hr after AdGFP; control 7.8%; no significant increase
# From the text: FIG. 7A). An even greater impact on tumor area was associated with naphthalene treatment; adenomas comprised a 6-, 12-, and 15-fold greater proportion of total lung area when initiated after airway damage in the three experiments (p=0.009; FIG. 7B).
# [2] = test system: BASCs (Sca-1pos CD45neg Pecamneg cells); test: FACS analysis of BASC abundance after naphthalene treatment; format: in vivo, mouse
# [3] = test system: Lox-K-ras lung tumors; test: Naphthalene treatment before AdCre in LSL-K-ras G12D mice: tumor number and area; format: in vivo, mouse; conditions: 6 weeks, three independent experiments, p=0.04
# Description: We reasoned that the cellular requirements for adenocarcinoma formation could be dissected further by combining K-ras G12D activation with naphthalene treatment, which stimulates proliferation of BASCs in vivo (see FIG. 2). LSL-K-ras G12D mice and wild-type controls were treated with naphthalene; tumorigenesis was initiated by administering AdCre 24 hr to 3 days later, and mice were euthanized after 6 weeks to determine tumor incidence and size.
# An even greater impact on tumor area was associated with naphthalene treatment; adenomas comprised a 6-, 12-, and 15-fold greater proportion of total lung area when initiated after airway damage in the three experiments (p=0.009; FIG. 7B).
# [4] = test system: BASCs; test: BASC number per terminal bronchiole by dual IF for CCA and SP-C after naphthalene treatment
# Description: To determine if airway damage affects BASCs, dual IF for CCA and SP-C is performed at various time points after naphthalene treatment. […] BrdU administered prior to euthanasia is used to determine if BASCs proliferate in response to naphthalene.
# Lox-stop-lox K-ras G12D mice (Jackson et al. (2001) Genes Dev. 15, 3243-3248) and wild-type littermates were maintained in viral-free conditions on an F1 129 SvJ/C57BI6 background. Four- to eight-week-old mice were used for FACS or intranasal infections as described (Jackson et al. (2001) Genes Dev. 15, 3243-3248). Naphthalene (Aldrich) was dissolved in MAZOLA corn oil and injected i.p. at 275 mg/kg using sex- and background-matched control mice. […] 30 mg/kg BrdU in PBS was injected i.p. 2 hr before euthanasia for proliferation studies. Tissue preparation was as described (Jackson et al., 2001, supra). BASCs were quantified by scoring sections from at least three mice for each condition.
# [5] = test system: BASCs; test: BrdU proliferation at the BADJ after naphthalene; format: in vivo, mouse; conditions: all SP-Cpos CCApos
# [6] = test system: BASCs; test: BASC incidence after intranasal bleomycin; format: in vivo, mouse
# Description: Bleomycin is administered intranasally, and at various time points after treatment, the incidence of BASCs is determined.
number of BASCs after naphthalene ([4]; any time point after naphthalene),Clara cell loss ([4]; by 52 hr after naphthalene),Compound,infected (GFPpos) cells that were SP-Cpos [1],"abundance of BASCs, fold increase vs corn oil control ([2]; 1 week after treatment, p=0.04)",abundance of BASCs ([2]; 24 hr after naphthalene),"fold more tumors vs controls (corn oil, AdCre) [3]","terminal bronchioles with two or more BASCs ([4]; 1 week after naphthalene 275 mg/kg i.p., controls 16%±5%, p=0.03)",number of BASCs per BADJ ([4]; six to seven weeks after naphthalene),time at which BrdUpos cells are first detected in the BADJ [5],BASC distribution ([6]; 7 days after bleomycin),"BASC numbers ([6]; 14 days after bleomycin, p=0.01)",BASC distribution ([6]; 28 days after bleomycin)
did not significantly decrease,significant Clara cell loss,"c1ccc2ccccc2c1 [naphthalene, Naphthalene]",10.5%,1.3 fold,did not change,1.3 fold and 2.2 fold and 2.3 fold,30%±9%,comparable to that in untreated lung,52 h,–,–,–
–,–,Bleomycin,–,–,–,–,–,–,–,significantly different neither,Significant increases,significantly different neither
